# Source: patent publication US6221914A, “Sulfonamide bridging compounds that inhibit tryptase activity” (Array Biopharma Inc., priority 1998, dated 2001)
# pKi: −log10 of the molar value.
# How the values were obtained:
# Assay type in all cases: biochemical
# [1] = target: T1, Bovine pancreatic Trypsin (Bos taurus, UniProt P00760); assay: Ki determination, bovine pancreatic trypsin (N-a-Benzoyl-L-Arg-pNA); details: 50 mM Tris-HCl, pH 8.2, 20 mM CaCl2; read-out: Experimentally Determined Ki, Trypsin
# T1 construct: from tissue; host or cells: bovine pancreas
# T1 sequence (P00760 24-246): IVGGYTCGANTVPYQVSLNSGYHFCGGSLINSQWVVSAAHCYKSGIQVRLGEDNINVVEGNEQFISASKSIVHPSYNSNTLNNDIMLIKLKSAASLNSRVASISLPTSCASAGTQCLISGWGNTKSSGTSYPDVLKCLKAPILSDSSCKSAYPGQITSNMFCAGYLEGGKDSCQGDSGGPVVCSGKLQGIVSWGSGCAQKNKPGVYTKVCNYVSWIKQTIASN
# Procedure: (§1) Protease inhibition was assayed according to published procedures with minor modifications using various proteases and specific chromogenic peptide p-nitroanilide substrates. Assays were performed in Costar ultra-low cluster 96-well microtiter plate (Costar Corning Corp., Cambridge Mass.). Each protease was incubated with various concentrations of the test compound for 15 min. at 37° C. or as otherwise indicated, in specific assay buffer, and the residual activity was then measured by addition of the substrate. p-Nitroaniline produced by the proteolysis was determined by measuring the change in absorbance at 405 nm on a SpectraMAX 340 plate reader (Molecular devices, Sunnyvale, Calif.).
# (§2) 1. The inhibition constant, Ki is calculated from individual data points using the equation for a tight-binding inhibitor (See Beith, "Proteinase Inhibitors-Proceedings of 2nd Int. Res. Conference", Fritz, et al. eds, New York, p.4463-4469 (1974)):
# (§3) vi /vo [((Ki '+[I]+[E]o)^2 -4 [I]o
# (§4) [E]o)^1/2 (Ki '+[I]o -[E]o)]/2[E]o
# (§5) where Ki ' is apparent inhibition constant; vi and vo are the inhibited and uninhibited rates, respectively; [I]o and [E]o are the total concentrations of inhibitor and enzyme, respectively.
# (§6) [note: [E]o is determined by active site titration of enzyme]
# (§7) The Ki values are obtained by correcting Ki ' values for the effect of substrate concentration according to: [formula]
# (§8) 2. Other inhibition data (Ki >>[E]o), the Ki is calculated from using the equations for a competitive inhibitor: [formula]
# Bovine pancreatic Trypsin (TPCK-treated) activity was determined by using N-a-Benzoyl-L-Arg-pNA in 50 mM Tris-HCl, pH 8.2, 20 mM CaCl2 (See Somorin, et al., J. Biochem. 85, 157-162 (1979)).
# (§9) The inhibition constant (Ki) of the test compounds against each proteolytic enzyme was determined according to Zitnik et al., Biochem. Biophys. Res. Commun. 232, 687-697 (1997)).
# [2] = target: T2, Human plasma thrombin (Homo sapiens, UniProt P00734); assay: Ki determination, human plasma thrombin (H-D-Phe-Pip-Arg-pNA); details: 50 mM Tris-HCl, pH 8.3, 100 mM NaCl, 1% BSA; read-out: Experimentally Determined Ki, Thrombin
# T2 construct: from tissue; host or cells: human plasma
# Procedure: as §1, §2, §3, §4, §5, §6, §7, §8
# Human plasma thrombin activity was determined by using H-D-Phe-Pip-Arg-pNA in 50 mM Tris-HCl, pH 8.3, 100 mM NaCl, 1% BSA (See Lottenberg, et al. Meth. Enzymol. 80, 341-361 (1981)).
# as §9
# [3] = target: T3, Human plasma factor Xa (Homo sapiens, UniProt P00742); assay: Ki determination, human plasma factor Xa (N-Benzoyl-Ile-Glu-Gly-Arg-pNA); details: 50 mM Tris-HCl, pH 7.8, 200 mM NaCl, 0.05% BSA; read-out: Experimentally Determined Ki, Factor Xa
# T3 construct: from tissue; host or cells: human plasma
# T3 sequence (P00742 235-488 limits assumed): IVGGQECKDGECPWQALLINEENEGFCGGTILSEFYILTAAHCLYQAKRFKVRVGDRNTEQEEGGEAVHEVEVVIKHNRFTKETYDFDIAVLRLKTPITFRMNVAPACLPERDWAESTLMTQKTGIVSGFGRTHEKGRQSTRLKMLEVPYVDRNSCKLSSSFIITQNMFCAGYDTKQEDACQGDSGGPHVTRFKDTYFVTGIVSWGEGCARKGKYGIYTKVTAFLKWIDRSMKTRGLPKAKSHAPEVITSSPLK
# T3 sequence (P00742 41-179 partner limits assumed): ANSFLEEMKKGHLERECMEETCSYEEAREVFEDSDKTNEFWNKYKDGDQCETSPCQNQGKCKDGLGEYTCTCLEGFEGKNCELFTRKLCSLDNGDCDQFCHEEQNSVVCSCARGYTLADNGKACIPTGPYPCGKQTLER
# Procedure: as §1, §2, §3, §4, §5, §6, §7, §8
# Human plasma factor Xa activity was determined by using N-Benzoyl-Ile-Glu-Gly-Arg-pNA in 50 mM Tris-HCl, pH 7.8, 200 mM NaCl, 0.05% BSA (See Lottenberg, et al. Meth. Enzymol. 80, 341-361 (1981)).
# as §9
# [4] = target: r-tissue kallikrein (Homo sapiens, UniProt P06870); assay: Ki determination, r-tissue kallikrein (DL-Val-Leu-Arg-pNA); details: 50 mM Tris-HCl, pH 7.8, 200 mM NaCl, 0.05% BSA; read-out: Experimentally Determined Ki, Tissue Kallikrein
# Chain of r-tissue kallikrein (P06870 25-262): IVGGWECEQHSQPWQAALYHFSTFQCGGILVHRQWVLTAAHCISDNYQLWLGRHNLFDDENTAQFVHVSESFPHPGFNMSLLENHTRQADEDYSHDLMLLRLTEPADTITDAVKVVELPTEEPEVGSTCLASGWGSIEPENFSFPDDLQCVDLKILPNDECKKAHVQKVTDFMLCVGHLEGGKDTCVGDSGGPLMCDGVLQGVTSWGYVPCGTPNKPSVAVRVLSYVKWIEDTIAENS
# Procedure: as §1, §2, §3, §4, §5, §6, §7, §8
# I. Human Plasma and r-Tissue Kallikrein
# Human plasma and r-tissue kallikrein activity were determined in 50 mM Tris-HCl, pH 7.8, 200 mM NaCl, 0.05% BSA by using H-D-Prolyl-Phe-Arg-pNA and DL-Val-Leu-Arg-pNA, respectively (See Lottenberg, et al., Meth. Enzymol. 80, 341-361 (1981)).
# as §9
# [5] = target: T4, Human plasma plasmin (Homo sapiens, UniProt P00747); assay: Ki determination, human plasma plasmin (Tosyl-Gly-Pro-Lys-pNA); details: 100 mM Tris-HCl, pH 7.4, 100 mM NaCl, 0.05% Triton X-100; read-out: Experimentally Determined Ki, Plasmin
# T4 construct: from tissue; host or cells: human plasma
# T4 sequence (P00747 581-810 limits assumed): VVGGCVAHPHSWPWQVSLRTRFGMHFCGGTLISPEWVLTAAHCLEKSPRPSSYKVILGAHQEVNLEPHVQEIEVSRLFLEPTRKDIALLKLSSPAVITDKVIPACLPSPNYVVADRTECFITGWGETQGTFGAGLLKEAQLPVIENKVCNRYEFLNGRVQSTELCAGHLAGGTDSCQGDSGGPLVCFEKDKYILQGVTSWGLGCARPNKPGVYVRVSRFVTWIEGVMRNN
# T4 sequence (P00747 97-580 partner limits assumed): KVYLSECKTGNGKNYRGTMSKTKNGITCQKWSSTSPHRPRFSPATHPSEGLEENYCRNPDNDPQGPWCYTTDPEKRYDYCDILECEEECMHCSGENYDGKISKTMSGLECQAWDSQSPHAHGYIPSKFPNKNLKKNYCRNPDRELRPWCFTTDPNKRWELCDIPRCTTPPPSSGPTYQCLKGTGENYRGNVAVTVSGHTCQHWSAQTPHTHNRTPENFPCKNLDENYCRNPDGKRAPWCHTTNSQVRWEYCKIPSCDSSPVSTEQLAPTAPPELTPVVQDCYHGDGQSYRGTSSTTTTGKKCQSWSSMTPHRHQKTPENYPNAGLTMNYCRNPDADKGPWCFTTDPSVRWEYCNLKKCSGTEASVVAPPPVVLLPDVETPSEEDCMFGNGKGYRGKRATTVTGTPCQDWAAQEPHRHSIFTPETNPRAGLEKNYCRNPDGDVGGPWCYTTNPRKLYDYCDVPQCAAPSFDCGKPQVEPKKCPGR
# Procedure: as §1, §2, §3, §4, §5, §6, §7, §8
# Human plasma plasmin activity was determined by using Tosyl-Gly-Pro-Lys-pNAin 100 mM Tris-HCl, pH 7.4, 100 mM NaCl, 0.05% Triton X-100 (See Lottenberg, et al., Meth. Enzymol. 80, 341-361 (1981)).
# as §9
# [6] = target: T5, Human Neutrophil elastase (Homo sapiens, UniProt P08246); assay: Ki determination, human neutrophil elastase (pyroGlu-Pro-Val-pNA); details: 100 mM Tris-HCl, pH 8.3, 0.96 M NaCl, 1% BSA; read-out: Experimentally Determined Ki, Elastase
# T5 construct: from tissue; host or cells: human neutrophils
# T5 sequence (P08246 30-267): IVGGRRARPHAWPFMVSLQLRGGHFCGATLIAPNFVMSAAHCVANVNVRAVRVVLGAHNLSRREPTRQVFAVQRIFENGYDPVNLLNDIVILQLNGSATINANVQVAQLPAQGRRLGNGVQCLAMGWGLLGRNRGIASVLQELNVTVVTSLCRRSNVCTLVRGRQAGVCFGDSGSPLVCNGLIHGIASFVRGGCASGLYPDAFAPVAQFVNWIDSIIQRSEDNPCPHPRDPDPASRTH
# Procedure: as §1, §2, §3, §4, §5, §6, §7, §8
# Human Neutrophil elastase activity was determined by using pyroGlu-Pro-Val-pNA in 100 mM Tris-HCl, pH 8.3, 0.96 M NaCl, 1% BSA (See Kramps, et al. Scand. J. Clin. Lab. Invest. 43, 427-432 (1983)).
# as §9
# [7] = target: T6, Bovine Pancreatic Chymotrypsin (Bos taurus, UniProt P00766); assay: Ki determination, bovine pancreatic chymotrypsin (N-Suc-Ala-Ala-Pro-Phe-pNA); details: 100 mM Tris-HCl, pH 7.8, 10 mM CaCl2; read-out: Experimentally Determined Ki, Chymotrypsin
# T6 construct: from tissue; host or cells: bovine pancreas
# Procedure: as §1, §2, §3, §4, §5, §6, §7, §8
# Bovine Pancreatic Chymotrypsin activity was determined by using N-Suc-Ala-Ala-Pro-Phe-pNA in 100 mM Tris-HCl, pH 7.8, 10 mM CaCl2 (See Delmar, et al., J. Biochem. 85, 157-162 (1979)).
# as §9
Compound,pKi [1],pKi [2],pKi [3],pKi [4],pKi [5],pKi [6],pKi [7]
"N=C(N)c1ccc(C(=O)NCc2ccc(OCCCCOc3ccc(CNC(=O)c4ccc(C(=N)N)cc4)cc3)cc2)cc1 [Example 60, 1,4-Bis-{4-[(4-carbamimidoyl-benzenecarbonylamino)-methyl]-phenoxy}-butane]",5.82,< 4.00,4.75,< 4.00,4.92,< 4.00,< 4.00
"N=C(N)c1cccc(C(=O)NCc2ccc(OCCCCOc3ccc(CNC(=O)c4cccc(C(=N)N)c4)cc3)cc2)c1 [Example 61, 1,4-Bis-{4-[(3-carbamimidoyl-benzenecarbonylamino)-methyl]-phenoxy}-butane]",5.92,< 4.00,6.00,< 4.00,5.22,< 4.00,< 4.00
"N=C(N)c1ccc(C(=O)NCc2ccc(OCCCOc3ccc(CNC(=O)c4ccc(C(=N)N)cc4)cc3)cc2)cc1 [Example 62, 1,3-Bis-{4-[(4-carbamimidoyl-benzoylamino)-methyl]-phenoxy}-propane]",5.62,< 4.00,4.46,< 4.00,4.94,< 4.00,< 4.00
"N=C(N)c1ccc(C(=O)NCc2ccc(OCCOc3ccc(CNC(=O)c4ccc(C(=N)N)cc4)cc3)cc2)cc1 [Example 64, 1,2-Bis-{4-[(4-carbamimidoyl-benzoylamino)-methyl]-phenoxy}-ethane]",5.85,< 4.00,4.45,< 4.00,5.19,< 4.00,< 4.00
"N=C(N)c1cccc(C(=O)NCc2ccc(OCCOc3ccc(CNC(=O)c4cccc(C(=N)N)c4)cc3)cc2)c1 [Example 65, 1,2-Bis-{4-[(3-carbamimidoyl-benzoylamino)-methyl]-phenoxy}-ethane]",5.66,< 4.00,5.59,< 4.00,4.34,< 4.00,< 4.00
"CN(Cc1ccc(OCCCOc2ccc(CN(C)S(=O)(=O)c3cccc(C(=N)N)c3)cc2)cc1)S(=O)(=O)c1cccc(C(=N)N)c1 [Example 68, 1,3-Bis-{4-[(3-carbamimidoyl-benzenesulfonyl-[N-methyl]-amino)-methyl]-phenoxy}-propane]",5.49,< 4.00,4.70,< 4.00,5.00,< 4.00,< 4.00
"N=C(N)c1cccc(C(=O)NCc2cccc(OCCCCCOc3cccc(CNC(=O)c4cccc(C(=N)N)c4)c3)c2)c1 [Example 77, 1,5-Bis-{3-[(3-carbamimidoyl-benzenecarbonylamino)-methyl]-phenoxy}-pentane]",5.85,< 4.00,5.72,4.49,5.37,< 4.00,< 4.00
"N=C(N)c1ccc(C(=O)NCc2ccc(OCCCOc3ccc(CNS(=O)(=O)c4cccc(C(=N)N)c4)cc3)cc2)cc1 [Example 86, 4-Carbamimidoyl-N-[4-(3-{4-[(3-carbamimidoyl-benzenesulfonylamino)-methyl]-phenoxy}-propoxy)-benzyl]-benzamide]",5.68,< 4.00,5.00,< 4.00,6.47,< 4.00,< 4.00
"N=C(N)c1ccc(C(=O)NCc2ccc(OCCCOc3ccc(CNC(=O)c4ccc(CN)cc4)cc3)cc2)cc1 [Example 87, N-[4-(3-{4-[(4-Aminomethyl-benzoylamino)-methyl]-phenoxy}-propoxy)-benzyl]-4-carbamimidoyl-benzamide]",5.55,< 4.00,4.72,< 4.00,5.12,< 4.00,< 4.00

# The next compounds have a higher pKi [1] than those just listed; values first:
pKi [1],pKi [2],pKi [3],pKi [4],pKi [5],pKi [6],pKi [7],Compound
5.96,< 4.00,5.08,< 4.00,5.06,< 4.00,< 4.00,"N=C(N)c1cccc(C(=O)NCc2ccc(OCCCCCCCOc3ccc(CNC(=O)c4cccc(C(=N)N)c4)cc3)cc2)c1 [Example 59, 1,7-Bis-{4-[(3-carbamimidoyl-benzenecarbonylamino)-methyl]-phenoxy}-heptane]"
5.96,< 4.00,5.66,< 4.00,5.28,< 4.00,< 4.00,"N=C(N)c1ccc(C(=O)NCc2ccc(OCCCOc3ccc(CNC(=O)c4cccc(C(=N)N)c4)cc3)cc2)cc1 [Example 85, 4-Carbamimidoyl-N-[4-(3-{4-[(3-carbamimidoyl-benzoylamino)-methyl]-phenoxy}-propoxy)-benzyl]-benzamide]"
6.08,4.68,< 4.00,5.30,< 4.00,< 4.00,< 4.00,"N=C(N)c1ccc(C(=O)NCc2cccc(OCCCCCOc3cccc(CNC(=O)c4ccc(C(=N)N)cc4)c3)c2)cc1 [Example 76, 1,5-Bis-{3-[(4-carbamimidoyl-benzenecarbonylamino)-methyl]-phenoxy}-pentane]"
6.29,< 4.00,4.59,< 4.00,5.00,< 4.00,< 4.00,"N=C(N)c1ccc(C(=O)NCc2ccc(COCc3ccc(CNC(=O)c4ccc(C(=N)N)cc4)cc3)cc2)cc1 [Example 66, 1,3-Bis-{4-[(4-carbamimidoyl-benzenecarbonylamino)-methyl]-phenyl}-2-oxapropane]"
